# Target: 3-phosphoinositide-dependent protein kinase 1 (Homo sapiens) (UniProt O15530)
# Assay: Inhibition of recombinant PDK1 after 15 mins
row,IC50,Compound
1,> 100 µM,"O=C(NCCN1CCCC1)c1ccc(-c2cnc3ccc(NCc4ccc(Cl)c(Cl)c4)nn23)cc1 [4-(6-(3,4-dichlorobenzylamino)imidazo[1,2-b]pyridazin-3-yl)-N-(2-(pyrrolidin-1-yl)ethyl)benzamide]"
2,> 100 µM,"CN(C)CCNC(=O)c1ccc(-c2cnc3ccc(NCC4CC4)nn23)cc1 [4-(6-(cyclopropylmethylamino)imidazo[1,2-b]pyridazin-3-yl)-N-(2-(dimethylamino)ethyl)benzamide]"
3,> 100 µM,"O=C(NC[C@@H]1CCCN1)c1ccc(-c2cnc3ccc(NCc4ccc(Cl)c(Cl)c4)nn23)cc1 [(S)-4-(6-(3,4-dichlorobenzylamino)imidazo[1,2-b]pyridazin-3-yl)-N-(pyrrolidin-2-ylmethyl)benzamide]"
4,> 100 µM,"O=C(NC[C@@H]1CCCN1)c1ccc(-c2cnc3ccc(NCc4cccc(Cl)c4)nn23)cc1 [(S)-4-(6-(3-chlorobenzylamino)imidazo[1,2-b]pyridazin-3-yl)-N-(pyrrolidin-2-ylmethyl)benzamide]"
5,> 100 µM,"O=C(NC[C@@H]1CCCN1)c1ccc(-c2cnc3ccc(NCC4CC4)nn23)cc1 [(S)-4-(6-(cyclopropylmethylamino)imidazo[1,2-b]pyridazin-3-yl)-N-(pyrrolidin-2-ylmethyl)benzamide]"
